A word on the inhibition: it is the change of the read-out against control, counted positive when it falls.

One assay concerns Blumeria graminis f. sp. tritici (Erysiphe graminis f. sp. tritici). As to the kind of experiment: Blumeria graminis f. sp. tritici / wheat / leaf disc preventative (powdery mildew on wheat). The format is in vivo. To be noted: foliar, wheat leaf segments cv. Kanzler, inoculated 1 day after application, assessed 6-8 days after application, read-out: control of Blumeria graminis (percent disease control compared to untreated). The procedure:
Blumeria Graminis f. Sp. Tritici (Erysiphe Graminis f. Sp. Tritici)/Wheat/Leaf Disc Preventative (Powdery Mildew on Wheat):
Wheat leaf segments cv. Kanzler were placed on agar in a 24-well plate and sprayed with the formulated test compound diluted in water at an application rate of 200 ppm. The leaf disks were inoculated by shaking powdery mildew infected plants above the test plates 1 day after application. The inoculated leaf disks were incubated at 20° C. and 60% relative humidity under a light regime of 24 h darkness followed by 12 h/12 h (dark/light) in a climate chamber and the activity of a compound was assessed as percent disease control compared to untreated when an appropriate level of disease damage appears on untreated check leaf segments (6-8 days after application). The following compounds gave at least 80% control of Blumeria graminis: […]
As for `Cc1cc(C(F)F)c2c(n1)/C(=N/OCC1(CO/N=C3\CCCc4c(C(F)F)cc(C)nc43)CC1)CCC2` [P.45], the pest or weed control at 200 ppm is ≥ 80%.
Take `Cc1ccc2c(n1)/C(=N/OCC(F)CO/N=C1\CCCc3ccc(C)nc31)CCC2` (stereo not shown) [P.14]: the pest or weed control at 200 ppm was ≥ 80%.
The same measure, in the same setting: to `Cc1ccc2c(n1)/C(=N/OCC1(CO/N=C3\CCCc4ccc(C)nc43)CC1)CCC2` [P.03] belongs ≥ 80%.
As for `CC(C)(CO/N=C1\CCCc2cc3c(nc21)CCCC3)CO/N=C1\CCCc2cc3c(nc21)CCCC3` [P.50], the pest or weed control at 200 ppm is ≥ 80%.

A further assay deals with Puccinia recondita f. sp. tritici. The experiment in a line: Puccinia recondita f. sp. tritici / wheat / leaf disc preventative (brown rust). The class given is in vivo. To be noted: foliar, wheat leaf segments cv Kanzler, inoculated 1 day after application, assessed 7-9 days after application, read-out: control of Puccinia recondita f. sp. tritici, preventative (percent disease control compared to untreated). The method, then:
Puccinia Recondita f. Sp. Tritici/Wheat/Leaf Disc Preventative (Brown Rust): Wheat leaf segments cultivated variety (cv) Kanzler were placed on agar in 24-well plates and sprayed with formulated test compound diluted in water at an application rate of 200 ppm. The leaf disks were inoculated with a spore suspension of the fungus 1 day after application. The inoculated leaf segments were incubated at 19° C. and 75% relative humidity under a light regime of 12/12 h (light/dark) in a climate cabinet and the activity of a compound was assessed as percent disease control compared to untreated when an appropriate level of disease damage appears in untreated check leaf segments (7-9 days after application).
As for `Cc1cc(C(F)F)c2c(n1)/C(=N/OCC1(CO/N=C3\CCCc4c(C(F)F)cc(C)nc43)CC1)CCC2` [P.45], the pest or weed control at 200 ppm is ≥ 80%.
Still for that read-out and setting: to `Cc1ccc2c(n1)/C(=N/OCC(F)CO/N=C1\CCCc3ccc(C)nc31)CCC2` (stereo not shown) [P.14] belongs ≥ 80%; to `Cc1ccc2c(n1)/C(=N/OCC1(CO/N=C3\CCCc4ccc(C)nc43)CC1)CCC2` [P.03], ≥ 80%.

Another assay has the same test system. As to the kind of experiment: Puccinia recondita f. sp. tritici / wheat / leaf disc curative (brown rust). The class given is in vivo. To be noted: foliar, 200 ppm applied 1 day after inoculation, wheat leaf segments cv Kanzler, assessed 6-8 days after application, read-out: control of Puccinia recondita f. sp. tritici, curative (percent disease control compared to untreated). The procedure: Puccinia Recondita f. Sp. Tritici/Wheat/Leaf Disc Curative (Brown Rust): Wheat leaf segments cv Kanzler were placed on agar in 24-well plates. The leaf segments were inoculated with a spore suspension of the fungus. The plates were stored in darkness at 19° C. and 75% relative humidity. The formulated test compound diluted in water was applied at an application rate of 200 ppm 1 day after inoculation.
For the compound `Cc1cc(C(F)F)c2c(n1)/C(=N/OCC1(CO/N=C3\CCCc4c(C(F)F)cc(C)nc43)CC1)CCC2` [P.45], the pest or weed control at 200 ppm was ≥ 80%.
Still for that read-out and setting: to `Cc1ccc2c(n1)/C(=N/OCC(F)CO/N=C1\CCCc3ccc(C)nc31)CCC2` (stereo not shown) [P.14] belongs ≥ 80%; to `Cc1ccc2c(n1)/C(=N/OCC1(CO/N=C3\CCCc4ccc(C)nc43)CC1)CCC2` [P.03], ≥ 80%.

The next assay relates to Magnaporthe grisea (Pyricularia oryzae). The experiment in a line: whole plant or invertebrate. The class given is in vivo. To be noted: foliar, read-out: control of Magnaporthe grisea (percent disease control compared to untreated).
Consider `Cc1cc(C(F)F)c2c(n1)/C(=N/OCC1(CO/N=C3\CCCc4c(C(F)F)cc(C)nc43)CC1)CCC2` [P.45], for which the pest or weed control at 200 ppm was ≥ 80%.

The test system of another assay is Phaeosphaeria nodorum (Septoria nodorum). As to the kind of experiment: Phaeosphaeria nodorum (Septoria nodorum) / wheat / leaf disc preventative (glume blotch). The class given is in vivo. To be noted: Parastagonospora nodorum, foliar, wheat leaf segments cv Kanzler, inoculated 2 days after application, assessed 5-7 days after application, read-out: control of Phaeosphaeria nodorum (percent disease control compared to untreated). The method, then:
Phaeosphaeria Nodorum (Septoria nodorum)/Wheat/Leaf Disc Preventative (Glume Blotch): Wheat leaf segments cv Kanzler were placed on agar in a 24-well plate and sprayed with formulated test compound diluted in water at an application rate of 200 ppm. The leaf disks are inoculated with a spore suspension of the fungus 2 days after application. The inoculated test leaf disks are incubated at 20° C. and 75% relative humidity under a light regime of 12/12 h (light/dark) in a climate cabinet and the activity of a compound is assessed as percent disease control compared to untreated when an appropriate level of disease damage appears in untreated check leaf disks (5-7 days after application).
`Cc1cc(C(F)F)c2c(n1)/C(=N/OCC1(CO/N=C3\CCCc4c(C(F)F)cc(C)nc43)CC1)CCC2` [P.45]: the pest or weed control at 200 ppm was ≥ 80%.
Take `Cc1ccc2c(n1)/C(=N/OCC(F)CO/N=C1\CCCc3ccc(C)nc31)CCC2` (stereo not shown) [P.14]: the pest or weed control at 200 ppm is ≥ 80%.
The same measure, in the same setting: the figure for `Cc1ccc2c(n1)/C(=N/OCC1(CO/N=C3\CCCc4ccc(C)nc43)CC1)CCC2` [P.03] is ≥ 80%; for `CC(C)(CO/N=C1\CCCc2cc3c(nc21)CCCC3)CO/N=C1\CCCc2cc3c(nc21)CCCC3` [P.50] it is ≥ 80%.

A further assay relates to Pyrenophora teres. The experiment in a line: Pyrenophora teres / barley / leaf disc preventative (net blotch). The format is in vivo. To be noted: foliar, barley leaf segments cv Hasso, inoculated two days after application, assessed 5-7 days after application, read-out: control of Pyrenophora teres (disease control compared to untreated). The procedure:
Pyrenophora Teres/Barley/Leaf Disc Preventative (Net Blotch): Barley leaf segments cv Hasso are placed on agar in a 24-well plate and sprayed with formulated test compound diluted in water at an application rate of 200 ppm. The leaf segments are inoculated with a spore suspension of the fungus two days after application of the test solution. The inoculated leaf segments are incubated at 20° C. and 65% relative humidity under a light regime of 12/12 h (light/dark) in a climate cabinet and the activity of a compound is assessed as disease control compared to untreated when an appropriate level of disease damage appears in untreated check leaf segments (5-7 days after application).
As for `Cc1cc(C(F)F)c2c(n1)/C(=N/OCC1(CO/N=C3\CCCc4c(C(F)F)cc(C)nc43)CC1)CCC2` [P.45], the pest or weed control at 200 ppm was ≥ 80%.
Regarding `Cc1ccc2c(n1)/C(=N/OCC1(CO/N=C3\CCCc4ccc(C)nc43)CC1)CCC2` [P.03], the pest or weed control at 200 ppm was ≥ 80%.
On the same count and under the same terms, to `CC(C)(CO/N=C1\CCCc2cc3c(nc21)CCCC3)CO/N=C1\CCCc2cc3c(nc21)CCCC3` [P.50] belongs ≥ 80%.

A further assay deals with Pythium ultimum. The experiment in a line: Pythium ultimum / liquid culture (seedling damping off). The class given is cell-based. To be noted: Globisporangium ultimum, PDB potato dextrose broth, 24° C., 2-3 days after application, read-out: control of Pythium ultimum (inhibition of growth, photometrically). The method, then:
Pythium Ultimum/Liquid Culture (Seedling Damping Off): Mycelia fragments and oospores of a newly grown liquid culture of the fungus were directly mixed into nutrient broth (PDB potato dextrose broth). After placing a DMSO solution of test compound into a 96 well microtiter plate at an application rate 200 ppm, the nutrient broth containing the fungal mycelia/spore mixture was added. The test plates were incubated at 24° C. and the inhibition of growth was determined photometrically 2-3 days after application.
With `Cc1ccc2c(n1)/C(=N/OCC(F)CO/N=C1\CCCc3ccc(C)nc31)CCC2` (stereo not shown) [P.14], the inhibition at 200 ppm was ≥ 80%.
On the same count and under the same terms, to `Cc1ccc2c(n1)/C(=N/OCC1(CO/N=C3\CCCc4ccc(C)nc43)CC1)CCC2` [P.03] belongs ≥ 80%.

The subject of another assay is Botryotinia fuckeliana (Botrytis cinerea). The experiment in a line: Botryotinia fuckeliana (Botrytis cinerea) / liquid culture (gray mould). The class given is cell-based. To be noted: Vogels broth, 24° C., 3-4 days after application, read-out: control of Botryotinia fuckeliana (inhibition of growth, photometrically). The method, then:
Botryotinia Fuckeliana (Botrytis cinerea)/Liquid Culture (Gray Mould): Conidia of the fungus from cryogenic storage were directly mixed into nutrient broth (Vogels broth). After placing a DMSO solution of test compound into a 96-well microtiter plate at an application rate 200 ppm, the nutrient broth containing the fungal spores was added. The test plates were incubated at 24° C. and the inhibition of growth was determined photometrically 3-4 days after application.
Regarding `Cc1cc(C(F)F)c2c(n1)/C(=N/OCC1(CO/N=C3\CCCc4c(C(F)F)cc(C)nc43)CC1)CCC2` [P.45], the inhibition at 200 ppm is ≥ 80%.
Same read-out and setting: the figure for `Cc1ccc2c(n1)/C(=N/OCC(F)CO/N=C1\CCCc3ccc(C)nc31)CCC2` (stereo not shown) [P.14] is ≥ 80%; for `Cc1ccc2c(n1)/C(=N/OCC1(CO/N=C3\CCCc4ccc(C)nc43)CC1)CCC2` [P.03] it is ≥ 80%.
The same measure, in the same setting: the figure for `CC(C)(CO/N=C1\CCCc2cc3c(nc21)CCCC3)CO/N=C1\CCCc2cc3c(nc21)CCCC3` [P.50] is ≥ 80%.

The next assay relates to Thanatephorus cucumeris (Rhizoctonia solani). As to the kind of experiment: Thanatephorus cucumeris (Rhizoctonia solani) / liquid culture (foot rot, damping-off). To be noted: PDB potato dextrose broth, 24° C., 3-4 days after application, read-out: control of Thanatephorus cucumeris (inhibition of growth, photometrically). The format is cell-based. The method, then:
Thanatephorus Cucumeris (Rhizoctonia solani)/Liquid Culture (Foot Rot, Damping-Off): Mycelia fragments of a newly grown liquid culture of the fungus are directly mixed into nutrient broth (PDB potato dextrose broth). After placing a DMSO solution of the test compounds into a 96-well microtiter plate at an application rate 200 ppm, the nutrient broth containing the fungal material was added. The test plates were incubated at 24° C. and the inhibition of growth was determined photometrically 3-4 days after application.
Regarding `CC(C)(CO/N=C1\CCCc2cc3c(nc21)CCCC3)CO/N=C1\CCCc2cc3c(nc21)CCCC3` [P.50], the inhibition at 200 ppm was ≥ 80%.

These data come from patent US20140162980A1, “NOVEL MICROBIOCIDAL DIOXIME ETHER DERIVATIVES” (SYNGENTA CROP PROTECTION LLC, priority 2010, published 2014).
